Assay results taken from patent US20170037111A1, “Novel peptides and combination of peptides for use in immunotherapy against ovarian cancer and other cancers” (immatics biotechnologies GmbH, priority 2015, published 2017).

How the values were obtained:
[1] = biological target: HLA-A*02:01 (Homo sapiens, UniProt P04439, D140Y/D185E/D98H/E176V/E277Q/G131W/G231S/I119V/I121R/I166T/I218V/L300P/L318F/N151K/N90K/P208A/P217A/Q86G/Q94H/R138H/R169H/T345S); assay: MHC binding assay (UV-ligand exchange, β2m ELISA, peptide exchange yield); settings: MHC class I binding score; binding to HLA-A*02:01 ranged by peptide exchange yield (UV-ligand exchange, β2m ELISA)
Outline: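 Peptide–HLA-A*02:01 complexes were formed by UV-mediated exchange of a UV-cleavable ligand for the test peptide. Exchange yield was measured by capturing complexes on streptavidin, detecting with HRP anti-β2m antibody (1 h, 37°C) and reading TMB absorbance at 450 nm.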

[2] = test system: CD8+ T cells; assay: In vitro T-cell priming (immunogenicity) with aAPCs loaded with peptide/MHC and anti-CD28, pMHC multimer readout; type: cell-based, human; settings: for Wells positive [%]: in vitro immunogenicity, HLA-A*02 restricted peptides, positive wells among evaluable
Description: In order to obtain information regarding the immunogenicity of the TUMAPs of the present invention, the inventors performed investigations using an in vitro T-cell priming assay based on repeated stimulations of CD8+ T cells with artificial antigen presenting cells (aAPCs) loaded with peptide/MHC complexes and anti-CD28 antibody.
In order to perform in vitro stimulations by artificial antigen presenting cells loaded with peptide-MHC complex (pMHC) and anti-CD28 antibody, the inventors first isolated CD8+ T cells from fresh HLA-A*02 leukapheresis products via positive selection using CD8 microbeads (Miltenyi Biotec, Bergisch-Gladbach, Germany) of healthy donors obtained from the University clinics Mannheim, Germany, after informed consent.
PBMCs and isolated CD8+ lymphocytes were incubated in T-cell medium (TCM) until use consisting of RPMI-Glutamax (Invitrogen, Karlsruhe, Germany) supplemented with 10% heat inactivated human AB serum (PAN-Biotech, Aidenbach, Germany), 100 U/ml Penicillin/100 μg/ml Streptomycin (Cambrex, Cologne, Germany), 1 mM sodium pyruvate (CC Pro, Oberdorla, Germany), 20 μg/ml Gentamycin (Cambrex). 2.5 ng/ml IL-7 (PromoCell, Heidelberg, Germany) and 10 U/ml IL-2 (Novartis Pharma, Nürnberg, Germany) were also added to the TCM at this step.
Generation of pMHC/anti-CD28 coated beads, T-cell stimulations and readout was performed in a highly defined in vitro system using four different pMHC molecules per stimulation condition and 8 different pMHC molecules per readout condition.
The purified co-stimulatory mouse IgG2a anti human CD28 Ab 9.3 (Jung et al., 1987) was chemically biotinylated using Sulfo-N-hydroxysuccinimidobiotin as recommended by the manufacturer (Perbio, Bonn, Germany). Beads used were 5.6 μm diameter streptavidin coated polystyrene particles (Bangs Laboratories, Illinois, USA).
pMHC used for positive and negative control stimulations were A*0201/MLA-001 (peptide […] (SEQ ID NO. 664) from modified Melan-A/MART-1) and A*0201/DDX5-001 ([…] from DDX5, SEQ ID NO. 665), respectively.
800.000 beads/200 μl were coated in 96-well plates in the presence of 4×12.5 ng different biotin-pMHC, washed and 600 ng biotin anti-CD28 were added subsequently in a volume of 200 μl. Stimulations were initiated in 96-well plates by co-incubating 1×10^6 CD8+ T cells with 2×10^5 washed coated beads in 200 μl TCM supplemented with 5 ng/ml IL-12 (PromoCell) for 3 days at 37° C. Half of the medium was then exchanged by fresh TCM supplemented with 80 U/ml IL-2 and incubating was continued for 4 days at 37° C. This stimulation cycle was performed for a total of three times. For the pMHC multimer readout using 8 different pMHC molecules per condition, a two-dimensional combinatorial coding approach was used as previously described (Andersen et al., 2012) with minor modifications encompassing coupling to 5 different fluorochromes. Finally, multimeric analyses were performed by staining the cells with Live/dead near IR dye (Invitrogen, Karlsruhe, Germany), CD8-FITC antibody clone SK1 (BD, Heidelberg, Germany) and fluorescent pMHC multimers. For analysis, a BD LSRII SORP cytometer equipped with appropriate lasers and filters was used. Peptide specific cells were calculated as percentage of total CD8+ cells. Evaluation of multimeric analysis was done using the FlowJo software (Tree Star, Oregon, USA). In vitro priming of specific multimer+CD8+ lymphocytes was detected by comparing to negative control stimulations.
Exemplary flow cytometry results after TUMAP-specific multimer staining for two peptides of the invention are shown in FIG. 3 together with corresponding negative controls.

[3] = test system: ovarian cancer; settings: clinical studies, phase as stated; cited from earlier work

Substance | Peptide exchange [1] | Wells positive [%] [2] | donors ([2]; in vitro immunogenicity of HLA class I peptides, percentage of positive donors) | wells ([2]; in vitro immunogenicity of HLA class I peptides, percentage of positive wells) | clinical effect in ovarian cancer patients [3]
215 (QLINHLHAV; listed as Homo sapiens) [compound 215] | ″+++″ (≧50% = +++) | ″++″ (20%-49% = ++) | – | – | –
242 (AIAYILQGV; listed as Homo sapiens) [compound 242] | ″++″ (≧20% = ++) | ″+++″ (50%-69% = +++) | – | – | –
247 (VLLPNDLLEKV; listed as Homo sapiens) [compound 247] | ″+++″ (≧50% = +++) | ″+″ (<20% = +) | – | – | –
283 (ALYIGDGYVIHLA; listed as Homo sapiens) [compound 283] | ″+++″ (≧50% = +++) | – | +++ (50%-69% = +++) | + (<20% = +) | –
319 (SLEPQIQPV; listed as Homo sapiens) [compound 319] | ″++″ (≧20% = ++) | ″+″ (<20% = +) | – | – | –
384 (ILFANPNIFV; listed as Homo sapiens) [compound 384] | ″+++″ (≧50% = +++) | ″+″ (<20% = +) | – | – | –
395 (ALALGGIAVV; listed as Homo sapiens) [compound 395] | ″++++″ (≧75% = ++++) | ″+++″ (50%-69% = +++) | – | – | –
443 (GLWEIENNPTV; listed as Homo sapiens) [compound 443] | ″+++″ (≧50% = +++) | ″+″ (<20% = +) | – | – | –
446 (QLIPALAKV; listed as Homo sapiens) [compound 446] | ″+++″ (≧50% = +++) | ″++″ (20%-49% = ++) | – | – | –
454 (KLPPPPPQA; listed as Homo sapiens) [compound 454] | ″+++″ (≧50% = +++) | ″++″ (20%-49% = ++) | – | – | –
460 (AMLEKNYKL; listed as Homo sapiens) [compound 460] | ″++++″ (≧75% = ++++) | ″+″ (<20% = +) | – | – | –
463 (SLVESHLSDQLTL; listed as Homo sapiens) [compound 463] | ″+++″ (≧50% = +++) | ″++″ (20%-49% = ++) | – | – | –
489 (KMWEELPEVV; listed as Homo sapiens) [compound 489] | ″+++″ (≧50% = +++) | ″+″ (<20% = +) | – | – | –
499 (KIFDIDEAEEGV; listed as Homo sapiens) [compound 499] | ″++″ (≧20% = ++) | ″+″ (<20% = +) | – | – | –
511 (FLDPYCSASV; listed as Homo sapiens) [compound 511] | ″++″ (≧20% = ++) | ″+″ (<20% = +) | – | – | –
518 (KLNAEVACV; listed as Homo sapiens) [compound 518] | ″+++″ (≧50% = +++) | ″++″ (20%-49% = ++) | – | – | –
603 (FLIEPEHVNTV; listed as Homo sapiens) [compound 603] | ″++″ (≧20% = ++) | ″+″ (<20% = +) | – | – | –
Ipilimumab: anti-CTLA4 antibody, which enhances T cell activity | – | – | – | – | significant anti-tumor effects
MORAb-003: anti-folate receptor alpha antibody | – | – | – | – | limited clinical benefit
bevacizumab: anti-VEGF antibody | – | – | – | – | appears to be advantageous
catumaxomab | – | – | – | – | promising results
oregovomab | – | – | – | – | promising results
